From patent US9611230B2, “1,3,4-oxadiazole benzoic acid compounds and their use for nonsense suppression and the treatment of disease” (PTC Therapeutics, Inc., priority 2004, dated 2017) come the findings set out here.

Structures are written as SMILES. Bounds are passed on as bounds.

What is called melting point is the temperature, or range, at which the solid turns liquid. Regarding `CC(C)c1ccc(-c2nsc(-c3cccc(C(=O)O)c3)n2)cc1` [Compound No. 326, 3-[3-(4-isopropylphenyl)-[1,2, 4]thiadiazol-5-yl]benzoic acid], the melting point is 166 to 168 °C.
Regarding `O=C(O)c1ccc(-c2cc(-c3cccc(F)c3)no2)cc1` [Compound 536], the melting point lay within 319 to 321 °C.
With `CC(C)c1ccc(-c2cnc(-c3cccc(C(=O)O)c3)o2)cc1` [Compound No. 288, 3-[5-(4-isopropylphenyl)-oxazol-2-yl]benzoic acid], the melting point fell in the range of 150 to 153 °C.
As for `CC(C)c1ccc(-c2ccc(-c3cccc(C(=O)O)c3)o2)cc1` [Compound No. 322, 3-[5-(4-isopropylphenyl)furan-2-yl]benzoic acid], the melting point lay in the range of 172 to 176 °C.
As for `CC(C)c1cccc(-c2nnc(-c3ccc(C(=O)O)cc3)o2)c1` [Compound 7], the melting point was in the range of 227 to 229 °C.
On to `O=C(O)c1cccc(-c2cc(-c3ccccc3F)no2)c1` [Compound 501], for which the melting point is 231 to 232 °C.
Compound `CN(C)c1ccccc1-c1nnc(-c2cccc(C(=O)O)c2)o1` [Compound 605] registered a melting point of 170 to 172 °C.
For `O=C(O)c1cccc(-c2nc(-c3ccc(F)cc3)n[nH]2)c1` [Compound 426], the melting point is above 310 °C.
As for `CN(C)c1ccccc1-c1nnc(-c2ccc(C(=O)O)cc2)o1` [Compound 601], the melting point is 177 to 178 °C.
Turning to `O=C(O)c1cccc(-c2nc(-c3cccc(F)c3)no2)c1` [Compound 507], the melting point lay in the range of 221.5 to 223 °C.
As for `CC(C)(C)c1ccc(-c2nc(-c3ccc(C(=O)O)cc3)no2)cc1` [Compound 141], the melting point lay in the range of 237 to 239 °C.
`O=C(O)c1cccc(-c2cc(-c3ccc(C(F)(F)F)cc3)on2)c1` [Compound 574] came in with a melting point of 281 to 282 °C.
In turn, `COc1cccc(-c2cnc(-c3ccc(C(=O)O)cc3)o2)c1` [Compound 544] registered a melting point of 240 to 242 °C.
The figure for `COc1cccc(-c2cc(-c3cccc(C(=O)O)c3)no2)c1` [Compound 481] is 201 to 203 °C; for `CC(C)c1ccc(-c2nnc(-c3ccc(C(=O)O)cc3)s2)cc1` [Compound No. 324, 4-[5-(4-isopropylphenyl)-[1,3,4]thiadiazol-2-yl]benzoic acid] it is above 300 °C.
In the case of `CCc1ccc(-c2cnc(-c3cccc(C(=O)O)c3)o2)cc1` [Compound 590], the melting point is 174 to 175 °C.
Regarding `O=C(O)c1cccc(-c2cc(-c3cccc(F)c3)no2)c1` [Compound 502], the melting point is 264 to 265 °C.
Regarding `O=C(O)c1cccc(-c2cc(-c3ccc(F)cc3F)on2)c1` [Compound 478], the melting point lay in the range of 260 to 262 °C.
For the compound `CC(C)c1ccc(-c2nc(-c3ccc(C(=O)O)cc3)no2)cc1` [Compound No. 275, 4-[5-(4-isopropylphenyl)-[1,2,4]oxadiazol-3-yl]benzoic acid], the melting point is 210 to 213 °C.
As to `Cc1ccc(-c2cc(-c3cccc(C(=O)O)c3)on2)cc1` [Compound 505], the melting point was 253 to 254 °C.
Regarding `O=C(O)c1cccc(-c2nc(-c3ccc(-c4ccccc4)cc3)n[nH]2)c1` [Compound 429], the melting point is above 300 °C.
In turn, `O=C(O)c1ccc(-c2ncc(-c3ccsc3)o2)cc1` [Compound 558] came in with a melting point of 246 to 247 °C.
The same measure for `CC(C)c1ccc(-c2cnc(-c3cccc(C(=O)O)c3)s2)cc1` [Compound No. 310, 3-[5-(4-Isopropyl-phenyl)thiazol-2-yl]benzoic acid]: 218 to 220 °C.
Compound `O=C(O)c1cccc(-c2noc(-c3ccccc3)c2C(=O)O)c1` [Compound 483] returned a melting point of 255 to 257 °C.
As to `O=C(O)c1cccc(-c2cc(-c3ccc(Cl)cc3)no2)c1` [Compound No. 503, 3-[3-(4-chlorophenyl)isoxazol-5-yl]benzoic acid], the melting point lay in the range of 265 to 266 °C.
The compound `Cc1cccc(-c2cnc(-c3ccc(C(=O)O)cc3)o2)c1` [Compound 632] registered a melting point of 248 to 249 °C.
Consider `CC(C)c1ccc(-c2ncc(-c3cccc(C(=O)O)c3)o2)cc1` [Compound No. 320, 3-[2-(4-isopropylphenyl)-oxazol-5-yl]-benzoic acid], for which the melting point is 193 to 195 °C.
`O=C(O)c1cccc(-c2ncc(-c3ccc(C(F)(F)F)cc3)o2)c1` [Compound 586] showed a melting point of 223.5 to 225 °C.
Compound `O=C(O)c1cccc(-c2ncc(-c3cccc(C(F)(F)F)c3)o2)c1` [Compound 585] displayed a melting point of 250 to 251.5 °C.
On to `O=C(O)c1ccc(-c2ncc(-c3ccc(F)cc3)o2)cc1` [Compound 554], for which the melting point lay in the range of 245 to 246 °C.
`O=C(O)c1cccc(-c2nc(-c3ccc(Cl)cc3)no2)c1` [Compound 508] had a melting point of 299 to 300 °C.
The same measure for `O=C(O)c1cccc(-c2nnc(-c3ccc(N4CCCCC4)cc3)o2)c1` [Compound 83]: 275 to 277 °C; for `O=C(O)c1cccc(-c2nc(-c3cccs3)n[nH]2)c1` [Compound 462]: 282 to 285 °C.
In turn, `O=C(O)c1ccc(-c2ncc(-c3ccc(Br)cc3)o2)cc1` [Compound 642] gave a melting point of 259 to 261 °C.
With `O=C(O)c1ccc(-c2cc(-c3ccc(Cl)cc3)on2)cc1` [Compound 533], the melting point is 273 to 275 °C.
With `CN(C)c1cccc(-c2nnc(-c3ccc(C(=O)O)cc3)o2)c1` [Compound 3], the melting point is 247 to 248 °C.
The figure for `COc1cccc(-c2cc(-c3cccc(C(=O)O)c3)n[nH]2)c1` [Compound 551] is 238 to 239 °C; for `CN(C)c1cccc(-c2nnc(-c3cccc(C(=O)O)c3)o2)c1` [Compound 2] it is 187 to 189 °C; for `O=C(O)c1cccc(-c2nnc(-c3ccc(N4CCN(c5ccccc5)CC4)cc3)o2)c1` [Compound 84] it is 279 to 282 °C.
Compound `CC(C)c1cccc(-c2cnc(-c3ccc(C(=O)O)cc3)o2)c1` [Compound 644] gave a melting point of 236 to 237 °C.
For `CC(C)c1ccc(-c2cnc(-c3ccc(C(=O)O)cc3)o2)cc1` [Compound 635], the melting point was in the range of 233 to 234 °C.
The figure for `CC(C)c1ccc(-c2cc(-c3cccc(C(=O)O)c3)no2)cc1` [Compound 290] is 222 to 225 °C; for `COc1ccc(-c2cnc(-c3ccc(C(=O)O)cc3)o2)cc1` [Compound 637] it is 249 to 251 °C.
With `CC(C)c1ccc(-c2ncc(-c3cccc(C(=O)O)c3)[nH]2)cc1` [Compound No. 311, 3-[2-(4-isopropylphenyl)-3H-imidazol-4-yl]benzoic acid], the melting point lay within 283 to 285 °C.
The compound `O=C(O)c1cccc(-c2nnc(-c3cccc4[nH]ccc34)o2)c1` [Compound 318] gave a melting point above 310 °C.
With `CC(C)c1cccc(-c2nnc(-c3cccc(C(=O)O)c3)o2)c1` [Compound 620], the melting point lay in the range of 190 to 192 °C.
In turn, `CC(C)c1ccc(-c2coc(-c3cccc(C(=O)O)c3)n2)cc1` [Compound 276] returned a melting point of 235 to 237 °C.
For `Cc1ccc(S(=O)(=O)Nc2cccc(-c3nnc(-c4ccc(C(=O)O)cc4)o3)c2)cc1` [Compound 13, 4-{5-[3-(toluene-4-sulfonylamino)phenyl]-[1,3,4]oxadiazol-2-yl}benzoic acid], the melting point is above 275 °C.
For `COc1ccccc1-c1cnc(-c2ccc(C(=O)O)cc2)o1` [Compound 645], the melting point is 305 to 306 °C.
For `O=C(O)c1ccc(-c2nnc(-c3ccc(C(=O)N4CCCCC4)cc3)o2)cc1` [Compound 286], the melting point is above 310 °C.
The same measure for `COc1ccc(-c2cc(-c3cccc(C(=O)O)c3)no2)cc1` [Compound 480]: 249.5 to 251 °C; for `CC(C)c1ccc(-c2nc(-c3cccc(C(=O)O)c3)ns2)cc1` [Compound No. 323, 3-[5-(4-isopropylphenyl)-[1,2,4]thiadiazol-3-yl]-benzoic acid]: 165 to 167 °C.
Regarding `CC(=O)Nc1cccc(-c2nnc(-c3ccc(C(=O)O)cc3)o2)c1` [Compound 14], the melting point is above 275 °C.
`O=C(O)c1cccc(-c2nc(-c3ccccc3F)n[nH]2)c1` [Compound 425] displayed a melting point above 310 °C.
With `CC(C)c1ccc(-c2nnc(-c3cccc(C(=O)[O-])c3)o2)cc1.[Na+]` [Compound 626], the melting point is 200 to 205 °C (dec.).
As to `O=C(O)c1ccc(-c2ncc(-c3ccc(Oc4ccccc4)cc3)o2)cc1` [Compound 647], the melting point was in the range of 220 to 222 °C.
With `O=C(O)c1cccc(-c2noc(-c3ccccc3)c2CO)c1` [Compound 484], the melting point lay in the range of 215 to 216 °C.
For the compound `Cc1ccccc1-c1cnc(-c2cccc(C(=O)O)c2)o1` [Compound 588], the melting point is 207 to 208 °C.
`O=C(O)c1cccc(-c2nnc(-c3ccc(Cl)nc3Cl)o2)c1` [Compound 272] had a melting point of 205 to 208 °C.
`O=C(O)c1ccc(-c2cc(-c3ccc(Cl)cc3)no2)cc1` [Compound 540] had a melting point of 320.5 to 322.5 °C.
Consider `CC(C)c1ccc(-c2nnc(-c3cccc(C(=O)O)c3Cl)o2)cc1` [Compound 401], for which the melting point lay in the range of 152 to 155 °C.
Consider `Cc1cccc(-c2ccc(-c3nnc(-c4cccc(C(=O)O)c4)o3)cn2)c1` [Compound 282], for which the melting point lay within 274 to 275 °C.
`CC(C)(C)C1CCC(c2nnc(-c3cccc(C(=O)O)c3)o2)CC1` (stereo not shown) [Compound 622] yielded a melting point of 245 to 247 °C.
In turn, `COc1ccccc1-c1n[nH]c(-c2cccc(C(=O)O)c2)n1` [Compound 459] had a melting point of 287 to 290 °C.
For `O=C(O)c1cccc(-c2nc(-c3ccccc3)n[nH]2)c1` [Compound 427], the melting point was above 300 °C.
In turn, `CC(C)c1ccc(-c2coc(-c3cccc(C(=O)O)c3)c2C(=O)O)cc1` [Compound No. 314, 2-(3-carboxyphenyl)-4-(4-isopropylphenyl)furan-3-carboxylic acid] gave a melting point of 236 to 239 °C.
`O=C(O)c1cccc(-c2noc(-c3ccccc3)c2C=NO)c1` [Compound 486] yielded a melting point of 198 to 202 °C.
